This note sets out measurements from patent US20150274639A1, “METHODS OF USE FOR COMPOSITIONS COMPRISING A BIOCIDAL POLYAMINE” (Curza Global, LLC, priority 2013, published 2015).

Assay [1] relates to MRSA biofilm. The assay is described as follows: MBEC, MBEC Inoculation Tray by Innovotech (to 10^2 CFU/peg in 24 hours). Type of assay: cell-based, methicillin-resistant Staphylococcus aureus. To be noted: Table 4.
Assay [2] deals with A. baumannii biofilm. The assay is described as above. In kind it is cell-based, Acinetobacter baumannii. To be noted: Table 4. The source says: To determine the MBEC of each polyamine compound, the MBEC Inoculation Tray by Innovotech, formerly known as the Calgary biofilm device, was used. Within this device, biofilms grow on the surface of polystyrene pegs, 96 of which are attached to a lid. These pegs are inserted into a flat bottom 96-well plate. In this instance, the MBEC of a molecule was defined as the concentration of compound (in μg/mL) required to reduce 10^5 or 10^6 CFU/peg (biofilm levels varied by isolate) to 10^2 CFU/peg in a 24-hour period.
Following the manufacturer's guidelines, biofilms were grown on the surface of each peg by first making a 0.5 McFarland of each isolate. The 0.5 McFarland was diluted 1:100 in CAMHB. Into each well of a flat bottom 96-well plate, 150 μL of broth were pipetted. The plate was shaken at 100 rpm for 24 hours (P. aeruginosa and A. baumannii) or 48 hours (MRSA). The pegs were then placed into a separate flat bottom 96-well plate for 10 seconds with 200 μL of phosphate buffered saline (PBS) in each well to remove nonadherent cells. The lid was then placed into a 96-well plate that contained varying concentrations of antimicrobial with 200 μL per well. The plate was incubated for 24 hours at 37° C. after which time 100 μL of broth were plated on TSA. TSA plates were incubated 24 hours at 37° C. and the number of CFU counted to calculate the CFU/peg. In this instance, the MBEC was defined as the concentration of antimicrobial required to reduce 10^5 or 10^6 CFU/peg to 10^2 CFU/peg in a 24 hour period.
To determine the MBEC, the MBEC Inoculation Tray by Innovotech, formerly known as the Calgary biofilm device, is used. Within this device, biofilms grow on the surface of polystyrene pegs, 96 of which are attached to a lid. These pegs are inserted into a flat bottom 96-well plate. In this instance, the MBEC of a molecule is defined as the concentration of compound required to reduce approximately 10^6 CFU/peg to approximately 10^2 CFU/peg in a 24-hour period.
Following the manufacturer's guidelines, biofilms are grown on the surface of each peg by first making a 0.5 McFarland of A. baumannii. The 0.5 McFarland is diluted 1:100 in CAMHB broth. Into each well of a flat bottom 96-well plate, 150 μL of broth is pipetted. The plate is shaken at 100 rpm for 24 hours. The pegs are placed into a separate flat bottom 96-well plate for 10 seconds with 200 μL of phosphate buffered saline (PBS) in each well to remove nonadherent cells. The lid is placed into a 96-well plate that contains varying concentrations of antimicrobial with 200 μL of broth per well. The plate is incubated for 24 hours at 37° C. after which time 100 μL of broth is plated on TSA. TSA plates is incubated 24 hours at 37° C. and the number of CFU counted to calculate the CFU/peg.
MBEC data were collected using the MBEC Inoculation Tray by Innovotech. The MBEC was defined in these preliminary results as the concentration of antimicrobial required to reduce 10^5 or 10^6 CFU/peg to 10^2 CFU/peg in a 24-hour period.

For assay [3], the system named is MRSA biofilm. Description: EBEC, high number biofilms on PEEK membranes (10^9 to 10^2 CFU/PEEK membrane in 24 hours). In kind it is cell-based, methicillin-resistant Staphylococcus aureus. The following applies: for EBEC, MRSA: Table 4. As for the experimental part: (§1) In addition to determining the MIC and the MBEC of polyamine compounds against planktonic bacteria and low number biofilms, our group wanted to determine the efficacy of polyamine compounds against high number biofilms. To do so, biofilms were grown on the surface of polyetheretherketone (PEEK) membranes using a membrane biofilm reactor. This reactor is similar to the CDC biofilm reactor, but rather than growing biofilms on coupon surfaces, the reactor was modified to hold PEEK membranes. In short, to grow biofilms within this system, 500 mL of brain heart infusion (BHI) broth were inoculated with 1 mL of a 0.5 McFarland. The reactor was placed on a hot plate set at 34° C. and the bacteria were grown under batch conditions for 24 hours. Following this protocol, biofilms typically grow to 10^9 CFU/PEEK membrane. […] A solution of 10% BHI was then flowed through the reactor at a rate of 6.94 mL/min for an additional 24 hours. PEEK membranes were then removed and placed into 2 mL of CAMHB that contained a desired concentration of polyamine compound or antibiotic. The EBEC was defined as the concentration of antimicrobial required to reduce a biofilm from approximately 10^9 CFU/PEEK membrane to approximately 10^2 CFU/PEEK membrane in a 24-hour period.
(§2) In addition to determining the MIC and the MBEC of compounds against planktonic bacteria and low number biofilms, the efficacy of the compounds of the invention against high number biofilms is determined. To do so, biofilms are grown on the surface of PEEK membranes using a membrane biofilm reactor (Williams, D. L., Haymond, B. S. & Bloebaum, R. D. Use of delrin plastic in a modified CDC biofilm reactor. Res J Microbiol 6, 425-429 (2011); Williams, D. L., Woodbury, K. L., Haymond, B. S., Parker, A. E. & Bloebaum, R. D. A modified CDC biofilm reactor to produce mature biofilms on the surface of PEEK membranes for an in vivo animal model application. Curr Microbiol 62, 1657-1663 (2011); Williams, D. L. et al., In Vivo Efficacy of a Silicone—Cationic Steroid Antimicrobial Coating to Prevent Implant-Related Infection. Biomaterials 33, 8641-8656 (2012); Williams, D. L. et al., Experimental model of biofilm implant-related osteomyelitis to test combination biomaterials using biofilms as initial inocula. J Biomed Mat Res A 100, 1888-1900 (2012)). This reactor is similar to the CDC biofilm reactor, but rather than growing biofilms on coupon surfaces, the reactor was modified to hold PEEK membranes. In short, to grow biofilms within this system, 500 mL of brain heart infusion (BHI) broth is inoculated with 1 mL of a 0.5 McFarland. The reactor is placed on a hot plate set at 34° C. and the bacteria grown under batch conditions for 24 hours. A solution of 10% BHI will then be flowed through the reactor at a rate of 6.94 mL/min for an additional 24 hours. Following this protocol, biofilms typically grow to 10^9 CFU/PEEK membrane. PEEK membranes is removed and placed into 2 mL of CAMHB that contain a desired concentration of the test compound. The EBEC is defined as the concentration of antimicrobial required to reduce a biofilm from approximately 10^9 CFU/PEEK membrane to approximately 10^2 CFU/PEEK membrane in a 24-hour period.
EBEC data were collected to determine the efficacy of CZ-52, CZ-58 and traditional antibiotics against high number biofilms containing approximately 10^9 CFU grown on the surface of a polyetheretherketone (PEEK) membrane.

In assay [4] the test system is A. baumannii biofilm. The description is as above. Type of assay: cell-based, Acinetobacter baumannii. The following applies: Table 4. As for the experimental part: as §1, §2
EBEC data were collected to determine the efficacy of CZ-52, CZ-58 and traditional antibiotics against high number biofilms containing approximately 10^9 CFU grown on the surface of a polyetheretherketone (PEEK) membrane. […] In contrast, at 250 μg/mL CZ-52 was able to reduce MRSA biofilms by greater than 7 log10 units in a 24-hour period. Although the MIC of CZ-58 was lower against MRSA compared to A. baumannii, CZ-58 had greater activity against biofilms of A. baumannii than against MRSA biofilms in the EBEC assay. […] Although the MIC of CZ-58 was “high” compared to MICs of traditional antibiotics, the efficacy against biofilms was promising.

Assay [5] relates to biofilm of MRSA. The assay is described as follows: Combination treatment: dispersal of MRSA biofilm. In kind it is cell-based, methicillin-resistant Staphylococcus aureus. The following applies: CZ-7 at […] mixed with chlorhexidine gluconate at […]; biofilm of 10^11 cells; within one hour.
In assay [6] the test system is MRSA biofilm. The assay is described as follows: MBEC assay (Calgary Biofilm Device), 100% eradication (Example 2). The following applies: eradicate 100% of detectable biofilm. In kind it is cell-based, methicillin-resistant Staphylococcus aureus. As for the experimental part:
In addition to determining the MIC, the minimum biofilm eradication concentration (MBEC) of PBC-51 was also determined. The MBEC was determined using the MBEC assay, formerly known as the Calgary Biofilm Device, developed by Innovotech. In this instance, the MBEC was defined as the amount of antimicrobial required to eradicate 100% of detectable biofilm after being grown in the MBEC device. To grow the biofilms within this device, 150 μL of solution containing a concentration of 10^5 cells/mL were inoculated into each well of a 96-well plate. A lid containing 96 pegs was placed onto the plate and incubated for 24 hours at 37° C. while being shaken at 110 rpm. Biofilms developed on the surface of the polystyrene pegs within the 96-well plate. After 24 hours, each peg contained between 10^5 and 10^6 cells in well-established biofilms. The lid with pegs was transferred to a 96-well plate that contained 200 μL of varying concentrations of the compound and was incubated at 37° C. for an additional 24 hours. The plate was then sonicated, and the biofilms quantified using a 10-fold dilution series to determine the MBEC.

Assay [7] concerns MRSA biofilm. The assay is described as follows: EBEC on PEEK membranes, 100% eradication (Example 2). In kind it is cell-based, methicillin-resistant Staphylococcus aureus. The following applies: PEEK membrane, eradicate all detectable amounts (100%). The method, then: The fourth test that was performed was the effective biofilm eradication concentration (EBEC). To determine the EBEC, biofilms of MRSA and P. aeruginosa ATCC 27853 were grown on the surface of PEEK membranes using a previously established protocol. Briefly, 500 mL of brain heart infusion (BHI) broth were inoculated with 10^5 cells/mL of MRSA or P. aeruginosa. BHI broth was placed into a membrane biofilm reactor and placed on a hot plate set at 34° C. for 24 hours with a stir bar rotating at 130 rpm. Following the initial 24-hour growth period, a 10% BHI broth solution was flowed through the reactor at a rate of 6.944 mL/min for another 24 hours. After 48 hours of growth, each PEEK membrane had biofilm growth on it. In this experiment, there were ˜2×10^11 cells of MRSA per PEEK membrane and −2×10^10 cells of P. aeruginosa per PEEK membrane. The EBEC was defined as the concentration of the compound that was required to eradicate all detectable amounts (100%) of bacteria within the biofilms.

Assay [8] relates to MRSA. The assay is described as follows: MIC in CAMHB, 96-well plate (10^5 to 10^2 CFU/mL in 24 hours). The following applies: Table 4. In kind it is cell-based, methicillin-resistant Staphylococcus aureus. The method, then:
To determine the MIC of polyamine compounds, the protocol described herein was used.
In brief, a 0.5 McFarland of each bacterial isolate was made. A 0.5 McFarland is a measure of turbidity in a liquid sample that contains approximately 1×10̂^8 CFU/mL. The 0.5 McFarland standard was diluted in cation adjusted Mueller Hinton Broth (CAMHB), and […], of broth were added to a well of a 96-well plate. In addition, 50 μL of CAMHB that contained a desired concentration of antimicrobial were also added to the well for a final volume of 100 and a final concentration of approximately 5×10^4 CFU/well (which equated to approximately 5×10^5 CFU/mL). Each well contained a desired amount of polyamine compound in order to experimentally determine the MIC. Each 96-well plate was incubated at 37° C. for 24 hours. The contents of each well were plated on tryptic soy agar (TSA). TSA plates were incubated for 37° C. for 24 hours after which the number of CFU were counted and used to calculate the CFU/mL that remained after exposure to varying concentrations of compound. This procedure was repeated n=8 times for each concentration of antimicrobial. […]

In brackets after ≈: the same amount, converted by molar mass. Several values for one entry are separate records, joined by “and”; a condition that tells them apart may be missing. Equal entries are not always repeated. Where two headings read alike, the source gives them in different places.

Take `NCCCNCCCNCc1ccccc1` [CZ-7, benzylnorspermidine]: the “MBEC, MRSA” value in assay [1] was > 500 μg/mL and > 2,259 μM. Also, in assay [2], the “MBEC, A. baumannii” value is > 500 μg/mL and > 2,259 μM. The “EBEC, MRSA” value in assay [3] was > 5,000 μg/mL and > 22,590 μM. Further, the “EBEC, A. baumannii” value in assay [4] is > 10,000 μg/mL and > 45,180 μM. Moreover, in assay [5], the “dispersal of MRSA biofilm” value was “significant dispersal”.
With `CN[C@H](CC(C)C)C(=O)N[C@H]1C(=O)N[C@@H](CC(N)=O)C(=O)N[C@H]2C(=O)N[C@H]3C(=O)N[C@H](C(=O)N[C@H](C(=O)O)c4cc(O)cc(O)c4-c4cc3ccc4O)[C@H](O)c3ccc(c(Cl)c3)Oc3cc2cc(c3O[C@@H]2O[C@H](CO)[C@@H](O)[C@H](O)[C@H]2O[C@H]2C[C@](C)(N)[C@H](O)[C@H](C)O2)Oc2ccc(cc2Cl)[C@H]1O` [Vancomycin, reference compound], the MBEC in assay [6] is > 500 μg/mL and > 336.50 μM. Besides, in assay [7], the EBEC was > 20,000 μg/mL and > 13,460 μM. Moreover, the “MIC, MRSA” value in assay [8] is 10 µg/mL (≈ 6.9 µM). Moreover, in assay [1], the “MBEC, MRSA” value was > 500 μg/mL and > 345 μM. Moreover, in assay [3], the “reduction of MRSA biofilms” value is reported as less than 1 log10 unit and the “EBEC, MRSA” value was > 25,000 μg/mL. The “reduction of MRSA biofilms” value in assay [3] (at 25,000 μg/mL) is less than 1 log10 unit.
